“Also recorded” adds a separate entry of the source. Like-named read-outs stand apart in the source and are kept apart here.
Assays:
[1] = tested on: 24-hydroxylase (24 Ohase) gene promoter in ROS 17/2.8 (bone) cells; experiment: In vitro transcription assay (24-hydroxylase promoter luciferase reporter); type: cell-based; settings: FIG. 3; for EC50: ROS 17/2.8 cells, 24-hydroxylase promoter luciferase, 16 h, read-out: EC50, transcriptional activity in bone cells; for transcription of the 24-hydroxylase gene, times less potent than 1,25-(OH)2D3: relative to 1,25-(OH)2D3
Method: In vitro Transcription Assay
Transcription activity was measured in ROS 17/2.8 (bone) cells that were stably transfected with a 24-hydroxylase (24 Ohase) gene promoter upstream of a luciferase reporter gene (Arbour et al., 1998). Cells were given a range of doses. Sixteen hours after dosing the cells were harvested and luciferase activities were measured using a luminometer.
RLU=relative luciferase units.

HL-60 cells = experiment: HL-60 differentiation (nitro blue tetrazolium reduction); type: cell-based, human; settings: for EC50: HL-60 cells, 4 days, read-out: EC50, HL60 differentiation
Method: The study drugs were dissolved in ethanol and the concentrations determined using UV spectrophotometry. Serial dilutions were prepared so that a range of drug concentrations could be tested without changing the final concentration of ethanol (≦0.2%) present in the cell cultures.
Human promyelocytic leukemia (HL60) cells were grown in RPMI-1640 medium containing 10% fetal bovine serum. The cells were incubated at 37° C. in the presence of 5% CO2.
HL60 cells were plated at 1.2×10^5 cells/ml. Eighteen hours after plating, cells in duplicate were treated with drug. Four days later, the cells were harvested and a nitro blue tetrazolium reduction assay was performed (Collins et al., 1979; J. Exp. Med. 149:969-974). The percentage of differentiated cells was determined by counting a total of 200 cells and recording the number that contained intracellular black-blue formazan deposits. Verification of differentiation to monocytic cells was determined by measuring phagocytic activity (data not shown).

[2] = tested on: bone calcium mobilization; experiment: Bone calcium mobilization (serum calcium); type: in vivo, Sprague-Dawley rats; settings: low calcium diet (0.02%), FIG. 4; for bone calcium mobilization activity: ip
Method: (§1) Intestinal Calcium Transport and Bone Calcium Mobilization Male, weanling Sprague-Dawley rats were placed on Diet 11 (0.47% Ca) diet +AEK oil for one week followed by Diet 11 (0.02% Ca) +AEK oil for 3 weeks. The rats were then switched to a diet containing 0.47% Ca for one week followed by two weeks on a diet containing 0.02% Ca. Dose administration began during the last week on 0.02% calcium diet. Four consecutive ip doses were given approximately 24 hours apart. Twenty-four hours after the last dose, blood was collected from the severed neck and the concentration of serum calcium determined as a measure of bone calcium mobilization. The first 10 cm of the intestine was also collected for intestinal calcium transport analysis using the everted gut sac method.

[3] = tested on: intestinal calcium transport; experiment: Intestinal calcium transport (everted gut sac method); type: in vivo, Sprague-Dawley rats; settings: FIG. 5
Method: as §1

[4] = target: T1, full-length recombinant rat vitamin D receptor (Rattus norvegicus, UniProt P13053); experiment: Vitamin D receptor competitive binding with [3H]-1,25-(OH)2D3
T1 construct: Full-length recombinant rat receptor was expressed in E. coli; histidine tag (C); made in house; host or cells: E. coli BL21 (DE3) Codon Plus RIL
T1 sequence (P13053 1-423): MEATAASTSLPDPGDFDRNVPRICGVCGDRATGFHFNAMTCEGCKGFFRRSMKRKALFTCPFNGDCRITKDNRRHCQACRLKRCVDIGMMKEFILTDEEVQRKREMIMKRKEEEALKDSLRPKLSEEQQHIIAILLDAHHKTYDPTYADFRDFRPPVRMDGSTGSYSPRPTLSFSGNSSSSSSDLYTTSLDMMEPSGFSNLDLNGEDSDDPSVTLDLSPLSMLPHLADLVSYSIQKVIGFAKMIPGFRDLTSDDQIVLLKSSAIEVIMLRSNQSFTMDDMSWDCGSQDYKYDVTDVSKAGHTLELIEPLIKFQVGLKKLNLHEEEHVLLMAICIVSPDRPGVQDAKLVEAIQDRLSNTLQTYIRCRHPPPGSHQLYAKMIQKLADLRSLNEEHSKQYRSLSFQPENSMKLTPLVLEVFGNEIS
Description: Vitamin D Receptor Binding
Full-length recombinant rat receptor was expressed in E. coli BL2 1 (DE3) Codon Plus RIL cells and purified to homogeneity using two different column chromatography systems. The first system was a nickel affinity resin that utilizes the C-terminal histidine tag on this protein. The protein that was eluted from this resin was further purified using ion exchange chromatography (S-Sepharose Fast Flow). Aliquots of the purified protein were quick frozen in liquid nitrogen and stored at −80° C. until use. For use in binding assays, the protein was diluted in TEDK50 (50 mM Tris, 1.5 mM EDTA, pH 7.4, 5 mM DTT, 150 mM KCl) with 0.1% Chaps detergent. The receptor protein and ligand concentration were optimized such that no more than 20% of the added radiolabeled ligand was bound to the receptor.
Radiolabeled and unlabeled ligands were added to 100 mcl of the diluted protein at a final ethanol concentration of ≦10%, mixed and incubated overnight on ice to reach binding equilibrium. The following day, 100 mcl of hydroxylapatite slurry (50%) was added to each tube and mixed at 10-minute intervals for 30 minutes. The hydroxylapaptite was collected by centrifugation and then washed three times with Tris-EDTA buffer (50 mM Tris, 1.5 mM EDTA, pH 7.4) containing 0.5% Titron X-100. After the final wash, the pellets were transferred to scintillation vials containing 4 ml of Biosafe II scintillation cocktail, mixed and placed in a scintillation counter. Total binding was determined from the tubes containing only radiolabeled ligand.

Row | Structure (SMILES) | EC50 [1] | EC50 (HL-60 cells; FIG. 2) | bone calcium mobilization activity ([2]; 260 pmol/day) | serum calcium levels ([2]; all the dosages tested) | transcription of the 24-hydroxylase gene, times less potent than 1,25-(OH)2D3 [1] | transcription of the 24-hydroxylase gene, times less potent than 1,25-(OH)2D3 ([1]; listed as Ia) | intestinal calcium transport activity ([3]; 780 pmol/day for 4 consecutive days, compared with 1,25-(OH)2D3 at 780 pmol/day) | intestinal calcium transport activity, overall compared with 1,25-(OH)2D3 ([3]; in vivo, no dose stated) | EC50 (HL-60 cells; Homo sapiens, 96 h, FIG. 2) | HL-60 differentiation, times less potent than 1,25-(OH)2D3 (HL-60 cells; relative to 1,25-(OH)2D3, FIG. 2) | reduced cell differentiation potency (HL-60 cells; relative to native hormone) | bone calcium mobilization activity ([2]; 7,020 pmol/day for 4 consecutive days) | Ki ([4]; full-length recombinant rat vitamin D receptor, FIG. 1, read-out: Ki, competition with [3H]-1,25-(OH)2D3 for binding to VDR) | VDR affinity, times less potent than 1,25-(OH)2D3 ([4]; relative to 1,25-(OH)2D3, FIG. 1) | reduced VDR binding affinity ([4]; relative to native hormone)
1 | C=C1/C(=C\C=C2/CCC[C@]3(C)[C@@H]([C@H](C)CCCC(C)(C)O)CC[C@@H]23)C[C@@H](O)C[C@@H]1O [1,25-(OH)2D3, 1α,25-dihydroxyvitamin D3, reference compound] | 0.2 nM | 3 nM | significant activity | increased serum calcium levels at all the dosages tested |  |  |  |  |  |  |  |  |  |  | 
2 | C[C@H](CCCC(C)(C)O)C1CCC2/C(=C/C=C3/C[C@@H](O)C4=CCO[C@@H]4C3)CCC[C@@]21C (stereo partly shown) [A-REV5, 1,2-dihydrofuran-25-hydroxy-19-nor-vitamin D3] | 8 nM |  |  |  | about 40 times | 40 times | almost the same activity as 1,25-(OH)2D3 | promotes intestinal calcium transport in a dose dependent manner; also recorded: only slightly lower potency in vivo | 30 nM | ~10 times | 1 log | no bone calcium mobilization activity; also recorded: did not result in any mobilization of bone calcium | 0.6 nM | ~10 times | about 1 log
